# Source: paper PMC11961743 (Nature Communications, 2025)
# Tested on: SdPT
# Experiment: HPLC prenylation assay, yeast microsomes
# Assay type: biochemical, Saposhnikovia divaricata
# Details: saturating DMAPP and MgCl2; optimum pH 10.0, 45 °C
smiles,measurement,value
"Cc1cc(=O)c2c(O)cc(O)cc2o1 [compound 2, noreugenin]",Km,29.1 µM
